# Test results as given in patent US20260265175A1, “METHOD FOR OBTAINING ORGANIC ACIDS FROM AN AQUEOUS MOTHER LIQUOR” (Covestro Deutschland AG, priority 2022, published 2026).
# Assays:
# [1] = Cu(OH)2 roughly stoichiometric, pH 4.5, starting solution 12 g/L
# [2] = Precipitation of 2-aminobenzoic acid (oAB) from aqueous solution as metal compound; residual oAB in supernatant by HPLC; assay type: physicochemical; conditions: value is the detection limit
# Excerpt: The pH was adjusted to about 3.5 with a 1M NaOH solution (corresponding to the isoelectric point of oAB). […] The solid (Cu(oAB)2, Fe(oAB)2 and/or Mn(oAB)2) was separated from the liquid phase by centrifugation.
smiles,measurement,setting,value
"O=C(O)CCCCC(=O)O [adipic acid, Adipic acid]",adipic acid concentration in liquid phase after precipitation with recycled Cu(OH)2 (sample C),[1],3 g/L
"Nc1ccccc1C(=O)O [oAB, 2-Aminobenzoic acid]",oAB concentration in aqueous supernatant after precipitation of the metal compound of the organic acid (sample A),"[2]; CuSO4, FeSO4 or MnSO4, metal salt:oAB 1:2, pH about 3.5, room temperature, starting solution 5 g/L",< 0.05 goAB/L
same,oAB concentration in liquid phase after precipitation with recycled metal hydroxide (sample C),"[2]; after addition both of Fe(OH)2 and Cu(OH)2, pH 3.5, starting solution 5 g/L",< 0.05 goAB/L
